US4767758A, “Pharmaceutical compositions containing thiophene compounds, and new thiophene compounds” (Consiglio Nazionale Delle Ricerche, priority 1984, dated 1988)

Key:
L 929 cells [1] = assay: Cytotoxicity on cell cultures (Table 2)
Method: (§1) The biological and pharmacological activity of the compounds under examination was tested on cell cultures and under gamma radiations. Concentrations of 10^-6, 5×10^-6, 10^-5 and 10^-3 M of each compound were used. These aqueous solutions were added to cell cultures containing from 50 to 60 L 929 cells per mm^2; nutrient solution RPM-1-1640 containing 3% calf serum. Contact between the cells and the compound under examination was continued for six hours under nitrogen and under air. Parts of the solutions during the contact with the drug were irradiated in gamma cell with 1000, 2000 and 3000 rad always using a control sample without the drug.

[2] = Reactivity with OH radicals, pulse irradiation (Table 3); conditions: KCNS 10^-4 M; pulse 50 nsec, dose 18 Gy; λ=500 nm
Description: (§2) For testing the reactivity with oxygen radicals, solutions of the compounds under examination in very pure water were submitted to irradiation by an electron flow in accordance with the following procedure:
The irradiated solution for measurement of reactivity with OH radicals contained KCNS 10^-4 M and increasing concentrations of the compounds under examination. The concentrations were 10^-6 and 6×10^-6for the first five compounds of Table 1, 10^-5 and 10^-4, 10^-3 M for the other eight compounds.
The water used for the tests was neutral and made absolutely pure by deionization and four distillations also in the presence of oxidizing agents (KMnO4).
The irradiation conditions were: pulse 50 nsec, dose 18 Gy.
Absorption was performed at λ=500 nm.

[3] = Reactivity with O2 radicals, pulsed electron beams (Table 3); conditions: potassium formiate solution saturated with O2; 12 MeV pulsed electron beams
Description: as §2
The O2 species was generated by irradiation of a […] solution of potassium formiate satured with O2 with 12 MeV pulsed electron beams.
The concentration of the O2 radical produced is depending from the irradiation dose (which is proportional to the length of the pulse) and was in any case in excess with respect to the concentration of the reacting substance.

[4] = Acute toxicity test by oral and intravenous route on male mice (Table 4); format: in vivo; conditions: mouse, in vivo, male mice
Method: (§3) The acute toxicity test was carried out by oral and intravenous route on male mice, weighing 19-21 g, which were deprived of meal for 16 hrs before treatment. Oral administration was performed by a gastric probe at doses of 500, 750, 1000 and 2000 mg/kg respectively, of the compounds under examination in aqueous solution of Tween (R). The intravenous administrations was performed in the caudal vein at doses of 100 and 200 mg/kg in 0.9% sodium chloride solution. The administered volumes were 1 ml/20 g by oral route and 0.5 ml/20 g by intravenous route.
(§4) After administration the mice were kept under control for 14 days.

male mice = assay: as above; format: in vivo; conditions: 14 days
Method: as §3, §4

L 929 cells [5] = assay: Radiosensitization of cells in hypoxic condition under gamma radiation (Table 1); format: cell-based
Method: as §1, with “Concentrations of 10^-6, 5×10^-6, 10^-5 and 10^-3 M of each compound were used.” left out

[6] = culture time 0 hr, 0.5 × 10^-5 M, control 40
[7] = culture time 6 hr, 0.5 × 10^-5 M, control 62
[8] = culture time 12 hr, 0.5 × 10^-5 M, control 80
[9] = culture time 24 hr, 0.5 × 10^-5 M, control 166
[10] = culture time 0 hr, 5 × 10^-5 M, control 40
[11] = culture time 6 hr, 5 × 10^-5 M, control 62
[12] = culture time 12 hr, 5 × 10^-5 M, control 80
[13] = culture time 24 hr, 5 × 10^-5 M, control 166

O=[N+]([O-])c1cc([N+](=O)[O-])c(I)s1 [Compound 1]
Cytotoxicity Index (number of cells) (L 929 cells [1]; [6]): 36 number of cells
Cytotoxicity Index (number of cells) (L 929 cells [1]; [7]): 35 number of cells
Cytotoxicity Index (number of cells) (L 929 cells [1]; [8]): 42 number of cells
Cytotoxicity Index (number of cells) (L 929 cells [1]; [9]): 71 number of cells
Reactivity with OH radicals measured as a speed constant (KOH·) [2]: 2.1e+10 M⁻¹ s⁻¹
Reactivity with O2 radicals measured as a speed constant (KO2-·) [3]: 3.5e+06 M⁻¹ s⁻¹
LD50 at 336 h ([4]; intravenous): 200 mg/kg
LD50 at 336 h ([4]; oral): 760 mg/kg
Death (dead/treated animals) (male mice; intravenous, 100 mg/kg): 0/5
Death (dead/treated animals) (male mice; intravenous, 200 mg/kg): 0/5
Death (dead/treated animals) (male mice; oral, 500 mg/kg): 0/5
Death (dead/treated animals) (male mice; oral, 750 mg/kg): 2/5
Death (dead/treated animals) (male mice; oral, 1000 mg/kg): 5/5

O=[N+]([O-])c1csc([N+](=O)[O-])c1 [Compound 2]
Cytotoxicity Index (number of cells) (L 929 cells [1]; [6]): 46 number of cells
Cytotoxicity Index (number of cells) (L 929 cells [1]; [7]): 40 number of cells
Cytotoxicity Index (number of cells) (L 929 cells [1]; [8]): 68 number of cells
Cytotoxicity Index (number of cells) (L 929 cells [1]; [9]): 80 number of cells

CS(=O)(=O)c1cc([N+](=O)[O-])c(I)s1 [Compound 3]
Cytotoxicity Index (number of cells) (L 929 cells [1]; [6]): 37 number of cells
Cytotoxicity Index (number of cells) (L 929 cells [1]; [7]): 30 number of cells
Cytotoxicity Index (number of cells) (L 929 cells [1]; [8]): 35 number of cells
Cytotoxicity Index (number of cells) (L 929 cells [1]; [9]): 50 number of cells

O=[N+]([O-])c1ccc(Oc2sccc2[N+](=O)[O-])cc1 [Compound 4]
Cytotoxicity Index (number of cells) (L 929 cells [1]; [6]): 56 number of cells
Cytotoxicity Index (number of cells) (L 929 cells [1]; [7]): 34 number of cells
Cytotoxicity Index (number of cells) (L 929 cells [1]; [8]): 48 number of cells
Cytotoxicity Index (number of cells) (L 929 cells [1]; [9]): 70 number of cells
Reactivity with OH radicals measured as a speed constant (KOH·) [2]: 1.3e+10 M⁻¹ s⁻¹
Reactivity with O2 radicals measured as a speed constant (KO2-·) [3]: 20000 M⁻¹ s⁻¹

NC(=O)c1ccc([N+](=O)[O-])s1 [Compound 5]
Radiosensitization Index (R.S.I.) (L 929 cells [5]; concentration 5 × 10^-5 M): 1.40
Cytotoxicity Index (number of cells) (L 929 cells [1]; [10]): 40 number of cells
Cytotoxicity Index (number of cells) (L 929 cells [1]; [11]): 32 number of cells
Cytotoxicity Index (number of cells) (L 929 cells [1]; [12]): 50 number of cells
Cytotoxicity Index (number of cells) (L 929 cells [1]; [13]): 80 number of cells
Reactivity with OH radicals measured as a speed constant (KOH·) [2]: 2.3e+10 M⁻¹ s⁻¹
Reactivity with O2 radicals measured as a speed constant (KO2-·) [3]: 30000 M⁻¹ s⁻¹

O=C(O)c1ccc([N+](=O)[O-])s1 [Compound 6]
Radiosensitization Index (R.S.I.) (L 929 cells [5]; concentration 1 × 10^-4 M): 1.82
Cytotoxicity Index (number of cells) (L 929 cells [1]; [10]): 50 number of cells
Cytotoxicity Index (number of cells) (L 929 cells [1]; [11]): 60 number of cells
Cytotoxicity Index (number of cells) (L 929 cells [1]; [12]): 70 number of cells
Cytotoxicity Index (number of cells) (L 929 cells [1]; [13]): 110 number of cells
Reactivity with OH radicals measured as a speed constant (KOH·) [2]: 7.5e+09 M⁻¹ s⁻¹
Reactivity with O2 radicals measured as a speed constant (KO2-·) [3]: 100000 M⁻¹ s⁻¹

O=C(O)CCNC(=O)c1ccc([N+](=O)[O-])s1 [Compound 7]
Radiosensitization Index (R.S.I.) (L 929 cells [5]; concentration 1 × 10^-4 M): 1.38
Cytotoxicity Index (number of cells) (L 929 cells [1]; [10]): 56 number of cells
Cytotoxicity Index (number of cells) (L 929 cells [1]; [11]): 70 number of cells
Cytotoxicity Index (number of cells) (L 929 cells [1]; [12]): 75 number of cells
Cytotoxicity Index (number of cells) (L 929 cells [1]; [13]): 164 number of cells

O=C(O)CCCNC(=O)c1ccc([N+](=O)[O-])s1 [Compound 8]
Radiosensitization Index (R.S.I.) (L 929 cells [5]; concentration 1 × 10^-4 M): 1.30
Cytotoxicity Index (number of cells) (L 929 cells [1]; [10]): 47 number of cells
Cytotoxicity Index (number of cells) (L 929 cells [1]; [11]): 50 number of cells
Cytotoxicity Index (number of cells) (L 929 cells [1]; [12]): 80 number of cells
Cytotoxicity Index (number of cells) (L 929 cells [1]; [13]): 152 number of cells

O=C(c1ccc([N+](=O)[O-])s1)N1CCOCC1 [Compound 9, 5-nitro-2-carboxythiophene-morpholinamide]
Radiosensitization Index (R.S.I.) (L 929 cells [5]; concentration 1 × 10^-4 M): 1.56
Cytotoxicity Index (number of cells) (L 929 cells [1]; [10]): 64 number of cells
Cytotoxicity Index (number of cells) (L 929 cells [1]; [11]): 60 number of cells
Cytotoxicity Index (number of cells) (L 929 cells [1]; [12]): 80 number of cells
Cytotoxicity Index (number of cells) (L 929 cells [1]; [13]): 138 number of cells
Reactivity with OH radicals measured as a speed constant (KOH·) [2]: 3.1e+10 M⁻¹ s⁻¹
Reactivity with O2 radicals measured as a speed constant (KO2-·) [3]: 230000 M⁻¹ s⁻¹
LD50 at 336 h ([4]; oral): 2000 mg/kg
Death (dead/treated animals) (male mice; intravenous, 100 mg/kg): 0/5
Death (dead/treated animals) (male mice; intravenous, 200 mg/kg): 0/5
Death (dead/treated animals) (male mice; oral, 500 mg/kg): 0/5
Death (dead/treated animals) (male mice; oral, 750 mg/kg): 0/5
Death (dead/treated animals) (male mice; oral, 1000 mg/kg): 1/5
Death (dead/treated animals) (male mice; oral, 2000 mg/kg): 3/5

CN1CCN(C(=O)c2ccc([N+](=O)[O-])s2)CC1 [Compound 10, 5-nitro-2-carboxythiophene-N-methyl-piperazinamide]
Radiosensitization Index (R.S.I.) (L 929 cells [5]; concentration 1 × 10^-4 M): 1.58
Cytotoxicity Index (number of cells) (L 929 cells [1]; [10]): 50 number of cells
Cytotoxicity Index (number of cells) (L 929 cells [1]; [11]): 52 number of cells
Cytotoxicity Index (number of cells) (L 929 cells [1]; [12]): 60 number of cells
Cytotoxicity Index (number of cells) (L 929 cells [1]; [13]): 86 number of cells
Reactivity with OH radicals measured as a speed constant (KOH·) [2]: 1e+10 M⁻¹ s⁻¹
Reactivity with O2 radicals measured as a speed constant (KO2-·) [3]: 33000 M⁻¹ s⁻¹

CC(=O)Nc1ccc([N+](=O)[O-])s1 [Compound 11, 5-nitro-2-(N-acetyl)-thienylamine]
Radiosensitization Index (R.S.I.) (L 929 cells [5]; concentration 1 × 10^-4 M): 1.65
Cytotoxicity Index (number of cells) (L 929 cells [1]; [10]): 44 number of cells
Cytotoxicity Index (number of cells) (L 929 cells [1]; [11]): 52 number of cells
Cytotoxicity Index (number of cells) (L 929 cells [1]; [12]): 60 number of cells
Cytotoxicity Index (number of cells) (L 929 cells [1]; [13]): 90 number of cells

O=C(O)C(C(=O)O)c1csc([N+](=O)[O-])c1 [Compound 12, 5-nitro-3-thiophenemalonic acid]
Radiosensitization Index (R.S.I.) (L 929 cells [5]; concentration 1 × 10^-4 M): 1.88
Cytotoxicity Index (number of cells) (L 929 cells [1]; [10]): 50 number of cells
Cytotoxicity Index (number of cells) (L 929 cells [1]; [11]): 60 number of cells
Cytotoxicity Index (number of cells) (L 929 cells [1]; [12]): 74 number of cells
Cytotoxicity Index (number of cells) (L 929 cells [1]; [13]): 136 number of cells
Reactivity with OH radicals measured as a speed constant (KOH·) [2]: 7.2e+09 M⁻¹ s⁻¹
Reactivity with O2 radicals measured as a speed constant (KO2-·) [3]: 10000 M⁻¹ s⁻¹
LD50 at 336 h ([4]; oral): 1200 mg/kg
Death (dead/treated animals) (male mice; intravenous, 100 mg/kg): 0/5
Death (dead/treated animals) (male mice; intravenous, 200 mg/kg): 0/5
Death (dead/treated animals) (male mice; oral, 500 mg/kg): 0/5
Death (dead/treated animals) (male mice; oral, 750 mg/kg): 0/5
Death (dead/treated animals) (male mice; oral, 1000 mg/kg): 2/5
Death (dead/treated animals) (male mice; oral, 2000 mg/kg): 5/5

ON=Cc1ccc(Br)s1 [Compound 13, 5-bromo-2-thiophenaldoxime]
Radiosensitization Index (R.S.I.) (L 929 cells [5]; concentration 1 × 10^-4 M): 1.65
Cytotoxicity Index (number of cells) (L 929 cells [1]; [10]): 43 number of cells
Cytotoxicity Index (number of cells) (L 929 cells [1]; [11]): 50 number of cells
Cytotoxicity Index (number of cells) (L 929 cells [1]; [12]): 70 number of cells
Cytotoxicity Index (number of cells) (L 929 cells [1]; [13]): 130 number of cells
Reactivity with OH radicals measured as a speed constant (KOH·) [2]: 8e+09 M⁻¹ s⁻¹
Reactivity with O2 radicals measured as a speed constant (KO2-·) [3]: 23000 M⁻¹ s⁻¹
LD50 at 336 h ([4]; oral): 1800 mg/kg
Death (dead/treated animals) (male mice; intravenous, 100 mg/kg): 0/5
Death (dead/treated animals) (male mice; intravenous, 200 mg/kg): 0/5
Death (dead/treated animals) (male mice; oral, 500 mg/kg): 0/5
Death (dead/treated animals) (male mice; oral, 750 mg/kg): 0/5
Death (dead/treated animals) (male mice; oral, 1000 mg/kg): 2/5
Death (dead/treated animals) (male mice; oral, 2000 mg/kg): 3/5

COCC(O)Cn1ccnc1[N+](=O)[O-] (stereo not shown) [Misonidazole, reference compound]
Radiosensitization Index (R.S.I.) (L 929 cells [5]; concentration 1 × 10^-3 M): 1.65
